In BindingDB's records for doi:10.1016/j.bmcl.2003.11.074 (Kaohsiung Medical University, 2004) one finds IC50 data, which are given here for seven compounds.

Broadly, the IC50 is the concentration at which inhibition is half-maximal. High values mean weaker potency in that assay, low ones greater potency in that assay.

One experiment addresses T1, Lysozyme C-1 (Rattus norvegicus, UniProt P00697).
T1 sequence (P00697 whole entry): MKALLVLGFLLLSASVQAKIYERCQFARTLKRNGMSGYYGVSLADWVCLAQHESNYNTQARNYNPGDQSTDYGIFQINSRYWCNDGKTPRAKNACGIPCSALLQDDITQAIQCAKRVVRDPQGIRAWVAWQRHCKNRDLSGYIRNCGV
Briefly: ChEBML_100187. The text has this: Inhibitory effect of compound on the release of lysozyme in rat neutrophils stimulated with fMLP/CB

Experiment [1] can be described thus: Inhibitory effect of compound on the release of Beta-glucuronidase in rat neutrophils stimulated with fMLP/CB.

Bounds are passed on as bounds.

`CN1CCN(CCCN2c3ccccc3Sc3ccc(C(F)(F)F)cc32)CC1`: the IC50 at Lysozyme C-1 was 9 µM.

As for `O=c1c(-c2ccc(O)cc2O)coc2cc(O)cc(O)c12` [3-(2,4-Dihydroxy-phenyl)-5,7-dihydroxy-chromen-4-one], the midpoint of inhibition at Lysozyme C-1, the IC50, lay at 9.7 µM. For the compound `COc1cc(O)ccc1-c1coc2cc(O)cc(O)c2c1=O` [5,7-Dihydroxy-3-(4-hydroxy-2-methoxy-phenyl)-chromen-4-one], the half-maximal inhibitory concentration (IC50) (against Lysozyme C-1; in experiment [1]) was > 30 µM throughout.

For `O=c1c(O)c(-c2ccc(O)cc2)oc2cc(OC3O[C@H](CO)[C@@H](O)[C@H](O)[C@H]3O)cc(O)c12` (stereo not given in full), the IC50 (at Lysozyme C-1; in experiment [1]) was > 30 µM in each case. Consider `O=c1cc(-c2ccc(O)cc2)oc2cc(O)cc(O)c12` [Naringenin, 18], for which the IC50 against Lysozyme C-1 is 17.7 µM. `C[C@](O)(CO)c1cc2c3c(ccc2o1)[C@@H]1COc2cc(O)ccc2[C@@H]1O3` [2-((11bR,12R)-9-Hydroxy-5b,11b-dihydro-6H-3,7,12-trioxa-benzo[a]cyclopenta[i]fluoren-2-yl)-propane-1,2-diol]: the half-inhibitory concentration (IC50) (on Lysozyme C-1; in experiment [1]) was > 30 µM each time. `O=c1cc(-c2ccc(O)cc2)oc2cc(O)ccc12` [7-hydroxy-2-(4-hydroxyphenyl)-4H-chromen-4-one]: on Lysozyme C-1, the IC50 is > 30 µM.
